Measured values from EP0414569A2, “Three-liquid-phase epoxidation of perfluoroolefins” (E.I. DU PONT DE NEMOURS AND COMPANY, priority 1989, dated 1991).

Key:
[1] = Determination of the HFP-HFPO partition coefficient (alpha) in an organic liquid: HFP/HFPO gas mixture passed through the liquid, dissolved gases measured by gas chromatography; assay type: physicochemical; details: HFP-HFPO partition coefficient of the organic liquid, atmospheric pressure
Experimental: A simple method of determining this preference (using HFP over HFPO as an example of other olefins and their epoxides covered by this invention) is to determine the partition coefficient for the system HFPO-HFP-organic liquid. Determination of the partition coefficient (alpha) is carried out by passing a mixture of HFP and HFPO gas through the organic liquid at atmospheric pressure while agitating vigorously and maintaining a constant temperature. The gas is passed through the liquid long enough to ensure that the liquid is completely saturated with the gases and to let the gas phase composition equilibrate to the feed composition. The organic liquid phase is then sampled and gas chromatography is used to determine the amount of the gaseous components which had been dissolved in the liquid phase. The partition coefficient, alpha, is then calculated by the following equation: [formula]
Using this method, partition coefficients were determined for a number of organic liquids at -15°C and 0°C, with the results shown below: […]

[2] = Miscibility of toluene with HFP and HFPO; assay type: physicochemical; details: in toluene; miscibility sharply affected by temperature
Source text: Certain organic liquids show more affinity for perfluoroolefins than for their epoxides and they are desired for use in this invention. […] With mixtures of HFP and HFPO as would exist in a continuous back-mixed reactor, immiscibility exists at higher temperatures. It is believed that organic liquids which are substantially halogenated will not form two phases with HFP or HFPO. […] Therefore, a hydrogen-containing organic liquid is used.

Compound | Alpha at 0°C [1] | Alpha at -15°C [1] | concentration at which toluene becomes immiscible [2]
Clc1ccccc1 [chlorobenzene] | 2.1 | 1.9 | 
dichlorobenzene | 2.1 | 2.0 | 
CCCCCCCCCC [n-decane] | 1.3 | 1.6 | 
FC(F)(F)C(F)(F)C(F)(F)C(F)(F)C1(F)OC(F)(F)C(F)(F)C1(F)F (centres unmarked) [FC-75, Perfluoro(butyl tetrahydrofurane)] | 1.0 | 1.0 | 
FC(F)(F)C1(F)OC1(F)F (centres unmarked) [HFPO, hexafluoropropylene epoxide] |  |  | 3-6 wt %
COc1ccccc1 [anisole] | 2.5 | 2.4 | 
Cc1cc(C)cc(C)c1 [mesitylene] | 2.2 | 2.3 | 
FC(F)=C(F)C(F)(F)F [HFP, hexafluoropropylene] |  |  | 20-40 wt %
